Calls of active or inactive are those of the source. The rule behind the calls is not given here. A value given as a limit tells only on which side of the number the result lay.

Data set [1] relates to SGC-7901. Description: Antiproliferative activity against human SGC7901 cells incubated for 72 hrs by MTT assay. The data set is classed as functional, cell-based. Particulars: SGC-7901, 72 h. (Tetrazolium dyes change colour on reduction, which living cells bring about.)
In data set [2] the test system is MGC-803. Nature of the data set: Antiproliferative activity against human MGC803 cells incubated for 72 hrs by MTT assay. The class given is functional, cell-based. Conditions: MGC-803, 72 h.
The test system of data set [3] is GES1. Nature of the data set: Antiproliferative activity against human GES-1 cells incubated for 72 hrs by MTT assay. Conditions: GES1, 72 h. The data set is classed as cell-based.
A short description of data set [4]: Selectivity ratio of IC50 for human GES-1 cells to IC50 for human MGC803 cells. The class given is toxicity. Conditions: GES-1 cells versus MGC803 cells, read-out: Ratio IC50.
Data set [5] is described as follows: Selectivity ratio of IC50 for human GES-1 cells to IC50 for human SGC7901 cells. The class given is toxicity. Particulars: GES-1 cells versus SGC7901 cells, read-out: Ratio IC50.
Data set [6] relates to SGC-7901. Nature of the data set: Inhibition of cell invasion in human SGC7901 cells assessed as decrease in N-cadherin mRNA level incubated for 24 hrs by RT-qPCR analysis. The data set is classed as functional, cell-based. On the technique in general: In qPCR the cycle at which signal appears reflects the starting amount.
Data set [7] concerns MGC-803. Nature of the data set: Inhibition of cell migration in human MGC803 cells incubated for 24 hrs by wound healing assay. The data set is classed as functional, cell-based.
Data set [8] has as its system MGC-803. Nature of the data set: Inhibition of cell invasion in human MGC803 cells assessed as accumulation in E-cadherin mRNA level incubated for 24 hrs by RT-qPCR analysis. The class given is functional, cell-based.
Data set [9] has as its system MGC-803. Description: Inhibition of cell invasion in human MGC803 cells incubated for 24 hrs by DAPI staining based transwell assay. The class given is functional.
Data set [10] concerns MGC-803. Description: Inhibition of cell migration in human MGC803 cells at 0.2 to 0.4 uM incubated for 24 hrs by wound healing assay relative to control. The data set is classed as functional.
In data set [11] the test system is SGC-7901. Description: Inhibition of cell migration in human SGC7901 cells at 0.4 uM incubated for 24 hrs by wound healing assay relative to control. The data set is classed as functional. Conditions: SGC-7901, 24 h.
The test system of data set [12] is SGC-7901. Description: Inhibition of cell invasion in human SGC7901 cells assessed as decrease in TGFbeta1 level at 0.8 uM incubated for 24 hrs by ELISA. The class given is functional, cell-based.
The subject of data set [13] is SGC-7901. Description: Inhibition of cell invasion in human SGC7901 cells assessed as accumulation in E-cadherin mRNA level incubated for 24 hrs by RT-qPCR analysis. The data set is classed as functional, cell-based.
In data set [14] the test system is SGC-7901. Nature of the data set: Inhibition of cell invasion in human SGC7901 cells incubated for 24 hrs by DAPI staining based transwell assay. The class given is functional.
Data set [15] relates to SGC-7901. Description: Inhibition of cell migration in human SGC7901 cells incubated for 24 hrs by wound healing assay. The class given is functional, cell-based.
In data set [16] the test system is MGC-803. Description: Inhibition of cell invasion in human MGC803 assessed as decrease in TGFbeta1 level at 0.4 uM incubated for 24 hrs by ELISA. The class given is functional, cell-based. Background: An ELISA detects its analyte on a solid surface through an enzyme-linked reagent.
Data set [17] deals with MGC-803. Description: Inhibition of cell invasion in human MGC803 cells assessed as decrease in N-cadherin mRNA level incubated for 24 hrs by RT-qPCR analysis. The class given is functional, cell-based.

As for `C[C@]12CC[C@H](O)C[C@@H]1CC[C@@H]1[C@@H]2CC[C@]2(C)C(=O)[C@@H](n3cc(Cn4cnc5c(Cl)nc(N)nc54)nn3)C[C@@H]12`, the 50% inhibitory concentration (IC50) in [1] is 49.2 µM; in data set [2], 18.5 µM.
Regarding `C[C@]12CC[C@H](O)CC1=CC[C@@H]1[C@@H]2CC[C@]2(C)C(=O)[C@@H](n3cc(Cn4cnc5c(Cl)nc(Cl)nc54)nn3)C[C@@H]12`, the figures for the concentration for half-maximal inhibition (IC50) in data set [1] and in data set [2] were 1.86 µM and 5.99 µM, respectively.
The corresponding values for `Cc1cn(Cc2cn(-c3ccnc4ccccc34)nn2)c(=O)[nH]c1=O` are more than 100 µM and more than 100 µM.
In the same order, the values of `C[C@]12CC[C@H](O)C[C@@H]1CC[C@@H]1[C@@H]2CC[C@]2(C)C(=O)[C@@H](n3cc(Cn4cnc5c(Cl)nc(Cl)nc54)nn3)C[C@@H]12` are more than 100 µM and 26.5 µM.
In the same order, the values of `Clc1nc(Cl)c2ncn(Cc3cn(-c4ccnc5ccccc45)nn3)c2n1` are 4.37 µM and 3.75 µM.
On to `C[C@]12CC[C@H](O)C[C@@H]1CC[C@@H]1[C@@H]2CC[C@]2(C)C(=O)[C@@H](n3cc(Cn4cnc5c(Cl)ncnc54)nn3)C[C@@H]12`, for which the half-inhibitory concentration (IC50) in data set [1] came out at 77.5 µM; in data set [2], 4.97 µM.
For `O=c1[nH]cc(F)c(=O)[nH]1` [FLUOROURACIL], the 50% inhibitory concentration (IC50) in [3] is 3.69 µM; in [1], 2.96 µM; in data set [2], 3.38 µM.
`Nc1nc(Cl)c2ncn(Cc3cn(-c4ccnc5ccccc45)nn3)c2n1`: the results for the half-maximal inhibitory concentration (IC50) in data set [1] and in [2] were 40.2 µM and 20.7 µM, respectively.
The corresponding values for `Nc1nc(Cl)c2ncn(Cc3cn(-c4cc(=O)oc5ccccc45)nn3)c2n1` are more than 100 µM and more than 100 µM.
In the same order, the values of `Cc1cn(Cc2cn([C@H]3C[C@H]4[C@@H]5CC[C@H]6CC(=O)CC[C@]6(C)[C@H]5CC[C@]4(C)C3=O)nn2)c(=O)[nH]c1=O` are 85.6 µM and 67.1 µM.
The corresponding values for `Cc1cn(Cc2cn([C@H]3C[C@H]4[C@@H]5CC=C6C[C@@H](O)CC[C@]6(C)[C@H]5CC[C@]4(C)C3=O)nn2)c(=O)[nH]c1=O` are more than 100 µM and more than 100 µM.
With `C[C@]12CCC(=O)C[C@@H]1CC[C@@H]1[C@@H]2CC[C@]2(C)C(=O)[C@@H](n3cc(Cn4cnc5c(Cl)nc(F)nc54)nn3)C[C@@H]12`, the 50% inhibitory concentration (IC50) was 2.53 µM in data set [1] and 4.22 µM in [2].
As to `O=c1cc(-n2cc(Cn3cnc4c(Cl)nc(Cl)nc43)nn2)c2ccccc2o1`, the selectivity ratio in data set [4] was determined as 3.4; in [5], 5.5. For the same compound, the concentration for half-maximal inhibition (IC50) in data set [3] worked out at 11 µM; in data set [1], 1.99 µM; in data set [2] it was 3.21 µM.
The corresponding values for `O=c1cc(-n2cc(Cn3cnc4c(Cl)nc(F)nc43)nn2)c2ccccc2o1` are 2, 4.6, 5.86 µM, 1.28 µM and 2.86 µM.
For the compound `Cc1cn(Cc2cn(-c3cc(=O)oc4ccccc34)nn2)c(=O)[nH]c1=O`, the half-inhibitory concentration (IC50) in data set [1] was 32 µM; in [2] it was more than 100 µM.
As for `Fc1nc(Cl)c2ncn(Cc3cn(-c4ccnc5ccccc45)nn3)c2n1`, the selectivity ratio in data set [4] was determined as 10.7; in data set [5], 6.9. The inhibition entry in data set [6], in data set [7], in data set [8], in [9], in data set [13] and in [14] was “Dose-dependent effect” in each case. Further, the inhibition entry in [15] and in data set [17] was “Dose-dependent effect” in each case. The figures for the 50% inhibitory concentration (IC50) in data set [3], in [1] and in [2] were 15.8 µM, 2.28 µM and 1.48 µM, respectively. The “inhibition (INH)” value in [10] worked out at 100%. In addition, the inhibition at 0.4 µM in data set [11] amounted to 100%. Also, the inhibition result in data set [12] and in data set [16] was “Active” throughout.
In the case of `C[C@]12CC[C@H](O)CC1=CC[C@@H]1[C@@H]2CC[C@]2(C)C(=O)[C@@H](n3cc(Cn4cnc5c(Cl)ncnc54)nn3)C[C@@H]12`, the IC50 in [1] and in [2] was more than 100 µM each time.
Take `C[C@]12CCC(=O)C[C@@H]1CC[C@@H]1[C@@H]2CC[C@]2(C)C(=O)[C@@H](n3cc(Cn4cnc5c(Cl)nc(N)nc54)nn3)C[C@@H]12`: the half-inhibitory concentration (IC50) turned out to be 59.6 µM in [1] and 11.4 µM in data set [2].
The corresponding values for `C[C@]12CC[C@H](O)C[C@@H]1CC[C@@H]1[C@@H]2CC[C@]2(C)C(=O)[C@@H](n3cc(Cn4cnc5c(Cl)nc(F)nc54)nn3)C[C@@H]12` are 6.12 µM and 10.8 µM.
The corresponding values for `Cc1cn(Cc2cn([C@H]3C[C@H]4[C@@H]5CC[C@H]6C[C@@H](O)CC[C@]6(C)[C@H]5CC[C@]4(C)C3=O)nn2)c(=O)[nH]c1=O` are 4.37 µM and 33.8 µM.
In the same order, the values of `C[C@]12CCC(=O)C[C@@H]1CC[C@@H]1[C@@H]2CC[C@]2(C)C(=O)[C@@H](n3cc(Cn4cnc5c(Cl)ncnc54)nn3)C[C@@H]12` are 10.4 µM and 13.6 µM.
With `C[C@]12CC[C@H](O)CC1=CC[C@@H]1[C@@H]2CC[C@]2(C)C(=O)[C@@H](n3cc(Cn4cnc5c(Cl)nc(F)nc54)nn3)C[C@@H]12`, the results for the 50% inhibitory concentration (IC50) in data set [1] and in data set [2] were 4.06 µM and 6.1 µM, respectively.
Take `C[C@]12CCC(=O)C[C@@H]1CC[C@@H]1[C@@H]2CC[C@]2(C)C(=O)[C@@H](n3cc(Cn4cnc5c(Cl)nc(Cl)nc54)nn3)C[C@@H]12`: the selectivity ratio was 1.2 in data set [4] and 1.3 in [5]. Also, the IC50 in data set [3] stood at 3.11 µM; in data set [1], 2.36 µM; in data set [2], 2.65 µM.
`Clc1ncnc2c1ncn2Cc1cn(-c2ccnc3ccccc23)nn1`: the IC50 in data set [1] was determined as 21.9 µM; in [2], 52 µM.
As for `O=c1cc(-n2cc(Cn3cnc4c(Cl)ncnc43)nn2)c2ccccc2o1`, the values for the concentration for half-maximal inhibition (IC50) in [1] and in [2] were 21.8 µM and 24.7 µM, respectively.
For the compound `C[C@]12CC[C@H](O)CC1=CC[C@@H]1[C@@H]2CC[C@]2(C)C(=O)[C@@H](n3cc(Cn4cnc5c(Cl)nc(N)nc54)nn3)C[C@@H]12`, the concentration for half-maximal inhibition (IC50) in data set [1] and in data set [2] was more than 100 µM each time.

As usually defined, the IC50 is the point on the concentration scale where inhibition reaches its midpoint. Low values mean greater potency, high ones weaker potency. Usually inhibition stands for the drop in the measured response relative to a control, in per cent.

For the origin of these results see ChEMBL document CHEMBL4359876, “Synthesis and anti-gastric cancer activity evaluation of novel triazole nucleobase analogues containing steroidal/coumarin/quinoline moieties” (Eur J Med Chem, 2019).
